Patent publication US20260258035A1, “FIVE-MEMBERED AND SIX-MEMBERED NITROGEN-CONTAINING COMPOUND, AND INTERMEDIATE, PREPARATION METHOD AND USE THEREOF” (HANGZHOU SYNRX THERAPEUTICS BIOMEDICAL TECHNOLOGY CO., LTD., priority 2022, published 2026)
Where two headings read alike, the source gives them in different places.

Columns and labels:
PARG = PARG (Homo sapiens, UniProt Q86W56); assay: Biochemical assay (PARG, TFMU-ADPr substrate)
HCC1806 = assay: Cell viability assay (CellTiter-Glo); type: cell-based, Human; conditions: HCC1806, 7 days, CellTiter-Glo, read-out: IC50 (nM) in cell viability assay

Chain of PARG (Q86W56 whole entry): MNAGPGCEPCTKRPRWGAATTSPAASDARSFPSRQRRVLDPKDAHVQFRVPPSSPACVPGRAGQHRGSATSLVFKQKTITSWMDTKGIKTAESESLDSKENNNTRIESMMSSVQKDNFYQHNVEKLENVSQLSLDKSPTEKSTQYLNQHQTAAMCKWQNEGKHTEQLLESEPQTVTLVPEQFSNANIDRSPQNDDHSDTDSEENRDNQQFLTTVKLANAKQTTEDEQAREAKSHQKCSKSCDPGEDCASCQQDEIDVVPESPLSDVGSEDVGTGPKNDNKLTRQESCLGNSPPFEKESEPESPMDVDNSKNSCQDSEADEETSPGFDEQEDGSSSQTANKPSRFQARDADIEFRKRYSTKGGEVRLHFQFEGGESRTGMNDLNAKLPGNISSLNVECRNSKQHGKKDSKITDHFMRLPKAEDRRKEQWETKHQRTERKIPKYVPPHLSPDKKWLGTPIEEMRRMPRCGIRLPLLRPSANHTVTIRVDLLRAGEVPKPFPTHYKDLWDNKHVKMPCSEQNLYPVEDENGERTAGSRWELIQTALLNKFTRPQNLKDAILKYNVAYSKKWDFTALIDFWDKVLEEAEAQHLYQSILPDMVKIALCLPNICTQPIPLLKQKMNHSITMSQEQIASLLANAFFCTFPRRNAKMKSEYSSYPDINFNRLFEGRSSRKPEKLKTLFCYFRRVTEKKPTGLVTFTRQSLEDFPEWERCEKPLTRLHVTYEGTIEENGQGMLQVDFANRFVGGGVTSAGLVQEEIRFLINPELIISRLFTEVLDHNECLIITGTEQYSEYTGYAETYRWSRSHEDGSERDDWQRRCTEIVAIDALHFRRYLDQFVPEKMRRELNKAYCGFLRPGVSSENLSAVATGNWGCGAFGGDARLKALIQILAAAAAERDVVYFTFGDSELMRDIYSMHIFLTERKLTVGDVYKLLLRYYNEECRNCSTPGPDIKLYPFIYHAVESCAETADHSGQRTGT

SMILES | IC50 (PARG; PARG, TFMU-ADPr substrate) | IC50 (HCC1806; Homo sapiens, HCC1806, 168 h) | IC50 (PARG; 4 nM PARG, 66.2 uM TFMU-ADPr, 3 min at room temperature) | IC50 (HCC1806)
N#CC1(NS(=O)(=O)c2cc(C3=CCN(S(=O)(=O)C4CC4)CC3)c3cnc(-c4nnc(C(F)(F)F)s4)n3c2)CC1 [Example 369, N-(1-cyanocyclopropyl)-8-(1-(cyclopropylsulfonyl)-1,2,3,6-tetrahydropyridin-4-yl)-3-(5-(trifluoromethyl)-1,3,4-thiadiazol-2-yl)imidazo[1,5-a]pyridine-6-sulfonamide] | 1.91 nM | 505 nM |  | 
CC(=O)N1CC=C(c2cc(S(=O)(=O)NC3(C#N)CC3)cn3c(-c4nnc(C(F)(F)F)s4)ncc23)CC1 [Example 370, 8-(1-acetyl-1,2,3,6-tetrahydropyridin-4-yl)-N-(1-cyanocyclopropyl)-3-(5-(trifluoromethyl)-1,3,4-thiadiazol-2-yl)imidazo[1,5-a]pyridine-6-sulfonamide] | 41.7 nM | 240 nM |  | 
CC1(NS(=O)(=O)c2cc(C3=CCN(S(C)(=O)=O)CC3)c3cnc(-c4nnc(C(F)(F)F)s4)n3c2)CC1 [Example 377, N-(1-methylcyclopropyl)-8-(1-(methylsulfonyl)-1,2,3,6-tetrahydropyridin-4-yl)-3-(5-(trifluoromethyl)-1,3,4-thiadiazol-2-yl)imidazo[1,5-a]pyridine-6-sulfonamide] | 1.41 nM | 60 nM |  | 
Cn1nccc1C1CCC(c2cc(S(=O)(=O)NC3(C#N)CC3)cn3c(-c4nnc(C(F)F)s4)nnc23)C1 (centres unmarked) [Example 378, N-(1-cyanocyclopropyl)-3-(5-(difluoromethyl)-1,3,4-thiadiazol-2-yl)-8-(3-(1-methyl-1H-pyrazol-5-yl)cyclopentyl)-[1,2,4]triazolo[4,3-a]pyridine-6-sulfonamide] | 27.7 nM | 5000 to 30000 nM | < 100 nM | 6000 nM

Next, values leading:

IC50 (PARG; PARG, TFMU-ADPr substrate) | IC50 (HCC1806; Homo sapiens, HCC1806, 168 h) | IC50 (PARG; 4 nM PARG, 66.2 uM TFMU-ADPr, 3 min at room temperature) | IC50 (HCC1806) | SMILES
4.57 nM | 360 nM |  |  | N#CC1(NS(=O)(=O)c2cc(C3=CCN(C(=O)C4(O)CC4)CC3)c3cnc(-c4nnc(C(F)(F)F)s4)n3c2)CC1 [Example 371, N-(1-cyanocyclopropyl)-8-(1-(1-hydroxycyclopropane-1-carbonyl)-1,2,3,6-tetrahydropyridin-4-yl)-3-(5-(trifluoromethyl)-1,3,4-thiadiazol-2-yl)imidazo[1,5-a]pyridine-6-sulfonamide]
3.8 nM | 580 nM |  |  | N#CC1(NS(=O)(=O)c2cc(C3CCN(C(=O)C4(O)CC4)CC3)c3cnc(-c4nnc(C(F)(F)F)s4)n3c2)CC1 [Example 372, N-(1-cyanocyclopropyl)-8-(1-(1-hydroxycyclopropane-1-carbonyl)piperidin-4-yl)-3-(5-(trifluoromethyl)-1,3,4-thiadiazol-2-yl)imidazo[1,5-a]pyridine-6-sulfonamide]
3.31 nM | 21.1 nM |  |  | COC1(C(=O)N2CCC(c3cc(S(=O)(=O)NC4(C#N)CC4)cn4c(-c5nnc(C(F)(F)F)s5)ncc34)CC2)CC1 [Example 373, N-(1-cyanocyclopropyl)-8-(1-(1-methoxycyclopropane-1-carbonyl)piperidin-4-yl)-3-(5-(trifluoromethyl)-1,3,4-thiadiazol-2-yl)imidazo[1,5-a]pyridine-6-sulfonamide]
2.09 nM | 20 nM |  |  | COC1(C(=O)N2CC=C(c3cc(S(=O)(=O)NC4(C#N)CC4)cn4c(-c5nnc(C(F)(F)F)s5)ncc34)CC2)CC1 [Example 379, N-(1-cyanocyclopropyl)-8-(1-(1-methoxycyclopropane-1-carbonyl)-1,2,3,6-tetrahydropyridin-4-yl)-3-(5-(trifluoromethyl)-1,3,4-thiadiazol-2-yl)imidazo[1,5-a]pyridine-6-sulfonamide]
27.1 nM | 3630 nM |  |  | N#CC1(NS(=O)(=O)c2cc(N3CCN(C(=O)C4(OCC(=O)O)CC4)CC3)c3cnc(-c4nnc(C(F)F)s4)n3c2)CC1 [Example 381, 2-(1-(4-(6-(N-(1-cyanocyclopropyl)sulfamoyl)-3-(5-(difluoromethyl)-1,3,4-thiadiazol-2-yl)imidazo[1,5-a]pyridin-8-yl)piperazine-1-carbonyl)cyclopropoxy)acetic acid]
